Measurements as given in ChEMBL document CHEMBL5370616, “Novel Nitric Oxide Donor-Azole Conjugation Strategy for Efficient Treatment of Cryptococcus neoformans Infections” (J Med Chem, 2023).
≈ marks a conversion by molar mass, not a printed value. Calls of active or inactive are those of the source. The rule behind the calls is not given here.

Test system: Candida albicans
Assay: Antifungal activity against Candida albicans SC5314 assessed as reduction in fungal growth incubated for 48 hrs by CLSI protocol based microplate reader analysis
Type: functional
Conditions: not given

Compound	MIC80
CN(Cc1ccc(CNCCCCCOc2no[n+]([O-])c2S(=O)(=O)c2ccccc2)cc1)CC(O)(Cn1cncn1)c1ccc(F)cc1F (stereo unspecified)	8 µg/mL (≈ 11.5 µM)
CN(Cc1ccc(OCCCOc2ccc(CC(=O)OCc3ccc(CO[N+](=O)[O-])cc3)cc2)cc1)CC(O)(Cn1cncn1)c1ccc(F)cc1F (stereo unspecified)	1 µg/mL (≈ 1.37 µM)
CN(Cc1ccc(OCCCOc2ccc(CC(=O)OCCCO[N+](=O)[O-])cc2)cc1)CC(O)(Cn1cncn1)c1ccc(F)cc1F (stereo unspecified)	1 µg/mL (≈ 1.49 µM)
CN(Cc1ccc(OCCCOc2ccc(CC(=O)OCCCCCCOc3no[n+]([O-])c3S(=O)(=O)c3ccccc3)cc2)cc1)CC(O)(Cn1cncn1)c1ccc(F)cc1F (stereo unspecified)	8 µg/mL (≈ 8.98 µM)

Test system: Nakaseomyces glabratus
Assay: Antifungal activity against Candida glabrata 10639 assessed as reduction in fungal growth incubated for 48 hrs by CLSI protocol based microplate reader analysis
Type: functional
Conditions: not given

Compound	MIC80
CN(Cc1ccc(CNCCCCCOc2no[n+]([O-])c2S(=O)(=O)c2ccccc2)cc1)CC(O)(Cn1cncn1)c1ccc(F)cc1F (stereo unspecified)	8 µg/mL (≈ 11.5 µM)
CN(Cc1ccc(OCCCOc2ccc(CC(=O)OCc3ccc(CO[N+](=O)[O-])cc3)cc2)cc1)CC(O)(Cn1cncn1)c1ccc(F)cc1F (stereo unspecified)	1 µg/mL (≈ 1.37 µM)
CN(Cc1ccc(OCCCOc2ccc(CC(=O)OCCCO[N+](=O)[O-])cc2)cc1)CC(O)(Cn1cncn1)c1ccc(F)cc1F (stereo unspecified)	1 µg/mL (≈ 1.49 µM)
CN(Cc1ccc(OCCCOc2ccc(CC(=O)OCCCCCCOc3no[n+]([O-])c3S(=O)(=O)c3ccccc3)cc2)cc1)CC(O)(Cn1cncn1)c1ccc(F)cc1F (stereo unspecified)	4 µg/mL (≈ 4.49 µM)

Test system: Cryptococcus neoformans
Assay: Antifungal activity against Cryptococcus neoformans H99 assessed as reduction in fungal growth incubated for 72 hrs by CLSI protocol based microplate reader analysis
Type: functional
Conditions: not given

Compound	MIC80
CN(Cc1ccc(OCCCOc2ccc(CC(=O)O)cc2)cc1)CC(O)(Cn1cncn1)c1ccc(F)cc1F (stereo unspecified)	2 µg/mL (≈ 3.53 µM)
CN(Cc1ccc(CNCCCCCOc2no[n+]([O-])c2S(=O)(=O)c2ccccc2)cc1)CC(O)(Cn1cncn1)c1ccc(F)cc1F (stereo unspecified)	2 µg/mL (≈ 2.87 µM)
CN(Cc1ccc(OCCCOc2ccc(CC(=O)OCc3ccc(CO[N+](=O)[O-])cc3)cc2)cc1)CC(O)(Cn1cncn1)c1ccc(F)cc1F (stereo unspecified)	0.5 µg/mL (≈ 0.683 µM)
CN(Cc1ccc(OCCCOc2ccc(CC(=O)OCCCO[N+](=O)[O-])cc2)cc1)CC(O)(Cn1cncn1)c1ccc(F)cc1F (stereo unspecified)	0.125 µg/mL (≈ 0.187 µM)
CN(Cc1ccc(OCCCOc2ccc(CC(=O)OCCCCCCOc3no[n+]([O-])c3S(=O)(=O)c3ccccc3)cc2)cc1)CC(O)(Cn1cncn1)c1ccc(F)cc1F (stereo unspecified)	4 µg/mL (≈ 4.49 µM)

Test system: Candida albicans
Assay: Antifungal activity against Candida albicans 0304103 assessed as reduction in fungal growth incubated for 48 hrs by CLSI protocol based microplate reader analysis
Type: functional
Conditions: not given

Compound	MIC80
CN(Cc1ccc(CNCCCCCOc2no[n+]([O-])c2S(=O)(=O)c2ccccc2)cc1)CC(O)(Cn1cncn1)c1ccc(F)cc1F (stereo unspecified)	> 64 µg/mL
CN(Cc1ccc(OCCCOc2ccc(CC(=O)OCc3ccc(CO[N+](=O)[O-])cc3)cc2)cc1)CC(O)(Cn1cncn1)c1ccc(F)cc1F (stereo unspecified)	32 µg/mL (≈ 43.7 µM)
CN(Cc1ccc(OCCCOc2ccc(CC(=O)OCCCO[N+](=O)[O-])cc2)cc1)CC(O)(Cn1cncn1)c1ccc(F)cc1F (stereo unspecified)	> 64 µg/mL
CN(Cc1ccc(OCCCOc2ccc(CC(=O)OCCCCCCOc3no[n+]([O-])c3S(=O)(=O)c3ccccc3)cc2)cc1)CC(O)(Cn1cncn1)c1ccc(F)cc1F (stereo unspecified)	> 64 µg/mL

Test system: Cryptococcus neoformans
Assay: Antifungal activity against Cryptococcus neoformans H99 assessed as reduction in fungal growth at 0.25 to 8 ug/ml incubated upto 72 hrs by microplate reader analysis
Type: functional, organism-based
Conditions: dose 0.25-8 µg/ml

Compound	Activity
CN(Cc1ccc(OCCCOc2ccc(CC(=O)OCc3ccc(CO[N+](=O)[O-])cc3)cc2)cc1)CC(O)(Cn1cncn1)c1ccc(F)cc1F (stereo unspecified)	Dose-Dependent Effect
CN(Cc1ccc(OCCCOc2ccc(CC(=O)OCCCO[N+](=O)[O-])cc2)cc1)CC(O)(Cn1cncn1)c1ccc(F)cc1F (stereo unspecified)	Dose-Dependent Effect

Test system: Cryptococcus neoformans
Assay: Fungicidal activity against Cryptococcus neoformans H99 assessed as reduction in colony forming units at 8 ug/ml incubated upto 72 hrs by time-kill assay
Type: functional
Parameters: scale not given: the % may be the effect or the level left
Conditions: dose 8 µg/ml

Compound	Activity
CN(Cc1ccc(OCCCOc2ccc(CC(=O)OCc3ccc(CO[N+](=O)[O-])cc3)cc2)cc1)CC(O)(Cn1cncn1)c1ccc(F)cc1F (stereo unspecified)	100%

Test system: Cryptococcus neoformans
Assay: Fungicidal activity against Cryptococcus neoformans H99 assessed as reduction in colony forming units at 4 to 8 ug/ml incubated upto 72 hrs by time-kill assay
Type: functional, organism-based
Conditions: dose 4-8 µg/ml

Compound	Activity
CN(Cc1ccc(OCCCOc2ccc(CC(=O)O)cc2)cc1)CC(O)(Cn1cncn1)c1ccc(F)cc1F (stereo unspecified)	inactive

Test system: Cryptococcus neoformans
Assay: Antifungal activity against Cryptococcus neoformans H99 assessed as reduction in number of colonies at 0.125 to 1 ug/ml incubated for 72 hrs by agar disk diffusion assay
Type: functional
Parameters: scale not given: the % may be the effect or the level left
Conditions: dose 0.125-1 µg/ml, at 0.125 to 1 µg/mL

Compound	Activity
CN(Cc1ccc(OCCCOc2ccc(CC(=O)OCc3ccc(CO[N+](=O)[O-])cc3)cc2)cc1)CC(O)(Cn1cncn1)c1ccc(F)cc1F (stereo unspecified)	100%

Test system: Cryptococcus neoformans
Assay: Inhibition of biofilm formation in Cryptococcus neoformans H99 at 0.25 ug/ml incubated for 24 hrs by XTT reduction assay
Type: functional
Conditions: not given

Compound	inhibition at 0.25 µg/mL
CN(Cc1ccc(OCCCOc2ccc(CC(=O)OCc3ccc(CO[N+](=O)[O-])cc3)cc2)cc1)CC(O)(Cn1cncn1)c1ccc(F)cc1F (stereo unspecified)	> 50%
CN(Cc1ccc(OCCCOc2ccc(CC(=O)OCCCO[N+](=O)[O-])cc2)cc1)CC(O)(Cn1cncn1)c1ccc(F)cc1F (stereo unspecified)	> 50%

Test system: Cryptococcus neoformans
Assay: Inhibition of biofilm formation in Cryptococcus neoformans H99 at 16 to 64 ug/ml incubated for 24 hrs by XTT reduction assay
Type: functional, organism-based
Conditions: dose 16-64 µg/ml

Compound	inhibition
CC1(C)N(O)C(c2ccccc2)=[N+]([O-])C1(C)C	inactive

Test system: Cryptococcus neoformans
Assay: Disruption of preformed mature biofilm in Cryptococcus neoformans H99 assessed as removal of mature biofilm at 0.125 ug/ml incubated for 24 hrs by XTT reduction assay
Type: functional
Parameters: scale not given: the % may be the effect or the level left
Conditions: dose 0.125 µg/ml

Compound	Activity
CN(Cc1ccc(OCCCOc2ccc(CC(=O)OCc3ccc(CO[N+](=O)[O-])cc3)cc2)cc1)CC(O)(Cn1cncn1)c1ccc(F)cc1F (stereo unspecified)	25%

Test system: Cryptococcus neoformans
Assay: Disruption of preformed mature biofilm in Cryptococcus neoformans H99 assessed as removal of mature biofilm at 32 ug/ml incubated for 24 hrs by XTT reduction assay
Type: functional
Parameters: scale not given: the % may be the effect or the level left
Conditions: dose 32 µg/ml

Compound	Activity
CN(Cc1ccc(OCCCOc2ccc(CC(=O)OCc3ccc(CO[N+](=O)[O-])cc3)cc2)cc1)CC(O)(Cn1cncn1)c1ccc(F)cc1F (stereo unspecified)	50%

Test system: Cryptococcus neoformans
Assay: Disruption of preformed mature biofilm in Cryptococcus neoformans H99 assessed as removal of mature biofilm at 0.125 to 32 ug/ml incubated for 24 hrs in presence of 2-phenyl-4,4,5,5-tetramethylimidazoline-l-oxyl 3-oxide by XTT reduction assay
Type: functional, organism-based
Conditions: dose 0.125-32 µg/ml

Compound	Activity
CN(Cc1ccc(OCCCOc2ccc(CC(=O)OCc3ccc(CO[N+](=O)[O-])cc3)cc2)cc1)CC(O)(Cn1cncn1)c1ccc(F)cc1F (stereo unspecified)	inactive

Test system: not listed separately
Assay: Drug metabolism in Cryptococcus neoformans H99 assessed as NO release by measuring green fluorescence at 8 ug/ml incubated for 12 hrs by DAF-FM DA staining based confocal laser scanning microscopy
Type: ADME
Conditions: dose 8 µg/ml

Compound	Drug metabolism
CN(Cc1ccc(OCCCOc2ccc(CC(=O)OCc3ccc(CO[N+](=O)[O-])cc3)cc2)cc1)CC(O)(Cn1cncn1)c1ccc(F)cc1F (stereo unspecified)	Metabolite_Detected

Test system: Cryptococcus neoformans
Assay: Fungicidal activity against Cryptococcus neoformans H99 assessed as cell death by measuring red fluorescence at 8 ug/ml incubated for 12 hrs by PI staining based confocal laser scanning microscopy
Type: functional, organism-based
Conditions: dose 8.0 µg/ml

Compound	Activity
CN(Cc1ccc(OCCCOc2ccc(CC(=O)OCc3ccc(CO[N+](=O)[O-])cc3)cc2)cc1)CC(O)(Cn1cncn1)c1ccc(F)cc1F (stereo unspecified)	Active

Test system: Cryptococcus neoformans
Assay: Inhibition of CYP51 in Cryptococcus neoformans H99 assessed as reduction in ergosterol level at 0.125 ug/ml incubated for 24 hrs by GC-MS analysis (Rvb= 58.33%)
Conditions: dose 0.125 µg/ml

Compound	inhibition
CN(Cc1ccc(OCCCOc2ccc(CC(=O)OCc3ccc(CO[N+](=O)[O-])cc3)cc2)cc1)CC(O)(Cn1cncn1)c1ccc(F)cc1F (stereo unspecified)	10.7%

Test system: Cryptococcus neoformans
Assay: Inhibition of CYP51 in Cryptococcus neoformans H99 assessed as increase in lanosterol level at 0.125 ug/ml incubated for 24 hrs by GC-MS analysis (Rvb= 6.24%)
Conditions: dose 0.125 µg/ml

Compound	inhibition
CN(Cc1ccc(OCCCOc2ccc(CC(=O)OCc3ccc(CO[N+](=O)[O-])cc3)cc2)cc1)CC(O)(Cn1cncn1)c1ccc(F)cc1F (stereo unspecified)	50.9%

Test system: Cryptococcus neoformans
Assay: Inhibition of CYP51 in Cryptococcus neoformans H99 assessed as decrease in unknown sterol level at 0.125 ug/ml incubated for 24 hrs by GC-MS analysis (Rvb= 22.95%)
Conditions: dose 0.125 µg/ml

Compound	inhibition
CN(Cc1ccc(OCCCOc2ccc(CC(=O)OCc3ccc(CO[N+](=O)[O-])cc3)cc2)cc1)CC(O)(Cn1cncn1)c1ccc(F)cc1F (stereo unspecified)	4.75%

Test system: Cryptococcus neoformans
Assay: Inhibition of CYP51 in Cryptococcus neoformans H99 assessed as increase in other unknown sterol level at 0.125 ug/ml incubated for 24 hrs by GC-MS analysis (Rvb= 12.49%)
Conditions: dose 0.125 µg/ml

Compound	inhibition
CN(Cc1ccc(OCCCOc2ccc(CC(=O)OCc3ccc(CO[N+](=O)[O-])cc3)cc2)cc1)CC(O)(Cn1cncn1)c1ccc(F)cc1F (stereo unspecified)	33.6%

Test system: Cryptococcus neoformans
Assay: Antifungal activity against Cryptococcus neoformans H99 assessed as reduction in melanin production at 32 ug/ml by microplate analysis
Type: functional, organism-based
Conditions: dose 32.0 µg/ml

Compound	Activity
CN(Cc1ccc(OCCCOc2ccc(CC(=O)OCc3ccc(CO[N+](=O)[O-])cc3)cc2)cc1)CC(O)(Cn1cncn1)c1ccc(F)cc1F (stereo unspecified)	Active

Test system: Cryptococcus neoformans
Assay: Antifungal activity against Cryptococcus neoformans H99 assessed as reduction in urease production at 8 ug/ml by microplate analysis
Type: functional, organism-based
Conditions: dose 8.0 µg/ml

Compound	Activity
CN(Cc1ccc(OCCCOc2ccc(CC(=O)OCc3ccc(CO[N+](=O)[O-])cc3)cc2)cc1)CC(O)(Cn1cncn1)c1ccc(F)cc1F (stereo unspecified)	Active
